Measurements published in US5618829A, “Tyrosine kinase inhibitors and benzoylacrylamide derivatives” (Mitsubishi Chemical Corporation, priority 1993, dated 1997).
Where two headings read alike, the source gives them in different places.

Assays:
[1] = biological target: T1, EGF receptor (Homo sapiens, UniProt P00533); experiment: Tyrosine kinase inhibitory activity (partially purified EGF receptor from A431 cell membrane fraction, RR-SRC peptide substrate); format: biochemical; settings: partially purified EGF receptor from A431 cells, 100 ng EGF, 10 μM γ-32P-ATP, 30 minutes under ice-cooling
T1 construct: The cell membrane fraction, a partially purified EGF receptor, was used as an enzyme source; endogenous in cells; host or cells: A431 (human epidermoid carcinoma), cell membrane fraction
Procedure: (§1) The compounds of the invention were evaluated their tyrosine kinase inhibitory activities with partially purified EGF (epidermal cell growth factor) receptor preparation and cell growth inhibitory activity with human cancer cells.
Tyrosine Kinase Inhibitory Activity
Tyrosine kinase inhibitory activities of the compounds of the invention were determined as the inhibitory activities of the compounds added into the tyrosine kinase activity assay system.
The method employed is detailed below.
A431 cells were cultured in Dulbecco's modified Eagles medium (DMEM) containing 10% fetal calf serum (FCS) at 37° C. under 5% CO2 atmosphere. The cultured cells were homogenated in a solution containing 10 mM N-2-hydroxyethylpiperazino-N'-2-ethane sulfonate buffer (pH 7.4), 0.25M sucrose, and 0.1 mM EDTA, and centrifuged at 3000 xg for 5 minutes. The supernatant was then centrifuged at 10000 xg for 30 minutes to obtain A431 cell membrane fraction. The cell membrane fraction, a partially purified EGF receptor, was used as an enzyme source. A test compound dissolved in dimethylsulfoxide (DMSO) was added to a reaction mixture containing 15 mM Hepes buffer (pH 7.7), 2 mM MnCl2, 10 μM ZnSO4, 50 μM Na3 VO4 and the partially purified EGF receptor preparation (10-15 μg). […] The mixture was allowed to react under […] for 30 minutes, and the reaction was stopped by addition of 10 mg/ml bovine serum albumin and 20% trichloroacetic acid. The reaction mixture was left to stand under ice-cooling for 30 minutes. The mixture was centrifuged at 5000 xg for two minutes, and an aliquot of the supernatant was adsorbed on P81 phosphocellulose filter. The filter was dipped in 30% aqueous acetic acid for 15 minutes for fixation and then washed with 15% acetic acid. The washing was repeated four times. The radioactivity of ^32 P retained on the phosphocellulose filter was counted with liquid scintillation counter.
Tyrosine kinase inhibitory activity (TKIA) was determined according to the following equation:
TKIA(%)={1-(B-C)/(A-C)}×100
The sympols "A", "B" and "C" represent the radioactivities determined in tyrosine kinase assays with test compounds, without a test compound, and without both a test compound and EGF, respectively.

[2] = tested on: KB cell; experiment: Cancer cell growth inhibitory activity (KB cells, MTT); format: cell-based; settings: Homo sapiens, 72 h, read-out: Inhibitory activity (IC50, μM) Cancer cell growth
Procedure: as §1
Cancer Cell Growth Inhibitory Activity
Accordingly, the KB cell was used to evaluate the effect of test compounds on the growth of cultured cancer cells.
KB cells were plated on a 96-well dish (2.5×10^3 cell/well) and cultured for 24 hours at 37° C. under 5% CO2 atmosphere in DMEM:F12 (1:1) medium containing 10% FCS, 50 μg/ml penicillin, and 50 μg/ml streptomycin. To the culture medium was added a test compound dissolved in DMSO (DMSO final concentration<0.1%), and the cells were cultured for three days under the same conditions. The test compound was exchanged every 24 hours together with the culture medium.
The amount of living cells were measured by calorimetric determination at wave lengths of 550 nm and 650 nm after developing colour by MTT reagent, in accordance with the method of Michael C.
Cancer cell growth inhibitory activity (CCGIA) was determined according to the following equation.
Simbols "a" and "b" represent the colorimetric values determined in the cancer cell growth assay with and without the test compounds, respectively.

[3] = KB cells, three days, 37° C., MTT

T1 sequence (P00533 25-1210): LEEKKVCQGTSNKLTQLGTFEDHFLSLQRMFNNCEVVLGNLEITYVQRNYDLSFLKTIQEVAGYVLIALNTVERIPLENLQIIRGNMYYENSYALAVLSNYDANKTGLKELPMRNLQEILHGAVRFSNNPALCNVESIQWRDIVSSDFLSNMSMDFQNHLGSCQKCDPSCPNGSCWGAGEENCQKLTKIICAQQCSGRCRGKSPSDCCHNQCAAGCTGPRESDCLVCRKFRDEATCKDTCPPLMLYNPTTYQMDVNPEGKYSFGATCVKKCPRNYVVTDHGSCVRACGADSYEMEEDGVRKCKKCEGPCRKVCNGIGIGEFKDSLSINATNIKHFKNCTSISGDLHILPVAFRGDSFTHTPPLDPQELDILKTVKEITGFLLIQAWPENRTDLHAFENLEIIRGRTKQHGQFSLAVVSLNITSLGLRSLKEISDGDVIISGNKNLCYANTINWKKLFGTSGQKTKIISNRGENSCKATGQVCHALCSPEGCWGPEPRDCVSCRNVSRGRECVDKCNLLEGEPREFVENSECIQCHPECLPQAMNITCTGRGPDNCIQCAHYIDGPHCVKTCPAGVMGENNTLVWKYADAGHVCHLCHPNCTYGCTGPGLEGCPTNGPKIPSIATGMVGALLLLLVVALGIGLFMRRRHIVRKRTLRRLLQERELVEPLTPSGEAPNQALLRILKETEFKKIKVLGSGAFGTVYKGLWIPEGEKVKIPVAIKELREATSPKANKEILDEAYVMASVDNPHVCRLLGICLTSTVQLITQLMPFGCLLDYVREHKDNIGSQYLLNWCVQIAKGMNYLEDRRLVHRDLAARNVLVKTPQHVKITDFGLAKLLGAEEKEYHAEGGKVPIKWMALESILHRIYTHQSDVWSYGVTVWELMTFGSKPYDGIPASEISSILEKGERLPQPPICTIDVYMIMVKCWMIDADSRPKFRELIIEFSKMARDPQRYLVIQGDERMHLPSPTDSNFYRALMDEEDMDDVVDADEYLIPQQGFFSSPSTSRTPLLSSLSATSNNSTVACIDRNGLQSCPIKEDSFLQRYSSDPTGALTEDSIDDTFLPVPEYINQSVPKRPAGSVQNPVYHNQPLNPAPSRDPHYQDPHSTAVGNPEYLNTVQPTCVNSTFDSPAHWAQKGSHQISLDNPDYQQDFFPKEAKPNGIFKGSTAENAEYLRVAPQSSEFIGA

Row | IC50 [2, 3] | SMILES | IC50 [1] | IC50 ([2]; KB)
1 | – | COc1ccc(C(=O)/C=C/C(=O)Nc2cccc(C)c2)cc1OC [Compound 83] | 0.81 µM | 0.95 µM
2 | – | COc1ccc(C(=O)/C=C/C(=O)NC2CCCCC2)cc1OC [Compound 45] | 1 µM | 0.22 µM
3 | – | COc1ccc(C(=O)/C=C/C(=O)Nc2ccccc2Cl)cc1OC [Compound 71] | 1.2 µM | 1.2 µM
4 | – | COc1ccc(C(=O)/C=C/C(=O)NC(=O)c2ccccc2)cc1OC [Compound 110] | 0.91 µM | 11.5 µM
5 | – | O=C(/C=C/C(=O)c1ccc(O)c(O)c1)Nc1cccc(Cl)c1 [Compound 75] | 4.3 µM | 1.25 µM
6 | – | COc1cc(C(=O)/C=C/C(=O)Nc2ccccc2)ccc1OC(F)F [Compound 64] | 1.5 µM | 1.1 µM
7 | – | COc1ccc(C(=O)/C=C/C(=O)NCc2ccccc2)cc1OC [Compound 19] | 0.79 µM | 0.97 µM
8 | – | COc1cc(C(=O)/C=C/C(=O)Nc2ccccc2)ccc1OCc1ccccc1 [Compound 67] | 13 µM | 0.58 µM
9 | 0.7 µM | COc1ccc(C(=O)/C=C/C(=O)Nc2cccc(Cl)c2)cc1OC [Compound 74] | 0.76 µM | –
10 | – | COc1ccc(C(=O)/C=C/C(N)=O)cc1OC [Compound 2] | 0.32 µM | 0.92 µM
11 | – | COc1ccc(C(=O)/C=C/C(=O)Nc2ccccc2)cc1 [Compound 58] | 2.2 µM | 0.34 µM
12 | – | COc1ccc(C(=O)/C=C/C(=O)Nc2ccccc2)cc1OC [Compound 59] | 0.54 µM | 0.45 µM
13 | 2 µM | COc1cc(C(=O)/C=C/C(=O)Nc2ccccc2)ccc1O [Compound 61] | 1.5 µM | –
14 | – | O=C(/C=C/C(=O)c1ccc(O)c(O)c1)Nc1ccccc1 [Compound 60] | 1 µM | 1.85 µM
